Results as given in PMC6804295, “Design, Synthesis, and Biological Evaluation of Novel Thienopyrimidine Derivatives as PI3Kα Inhibitors” (Molecules, 2019).

Legend:
[1] = system: PC-3 (human prostate cancer); assay: MTT cytotoxicity assay, PC-3 cells; format: cell-based; conditions: >50 = no inhibitory effect at 50 μM
Description: (§1) The cancer cell lines were cultured in minimum essential medium (MEM) supplement with 10% fetal bovine serum (FBS). Approximately, 4 × 10 ^3 cells, suspended in MEM medium, were plated onto each well of a 96-well plate and incubated in 5% CO2 at 37 °C for 24 h. The test compounds at the indicated final concentrations were added to the culture medium, and cell cultures continued for 72 h. Fresh MTT was added to each well at a terminal concentration of 5 µg/mL and incubated with cells at 37 °C for 4 h. The formazan crystals were dissolved in 100 µL of DMSO in each well, and the absorbency at 492 nm (for absorbance of MTT formazan) and 630 nm (for the reference wavelength) was measured with an enzyme linked immunosorbent assay (ELISA) reader (MR-96A Mindray Elisa Microplate Reader, Guangzhou, China). All compounds were tested three times in each of the cell lines. The results expressed as inhibition rates or IC50 was the averages of […] and calculated using the Bacus Laboratories Inc. Slide Scanner (Bliss) software (the Bacus Laboratories Inc. Slide Scanner (BLISS) system, Lombard, IL, USA).

A549 (human lung cancer) = assay: MTT cytotoxicity assay, A549 cells; format: cell-based; conditions: 72 h, >50 = no inhibitory effect at 50 μM
Description: as §1

[2] = system: MCF-7 (human breast cancer); assay: MTT cytotoxicity assay, MCF-7 cells; format: cell-based; conditions: >50 = no inhibitory effect at 50 μM
Description: as §1

HepG2 (human hepatoma) = assay: MTT cytotoxicity assay, HepG2 cells; format: cell-based; conditions: >50 = no inhibitory effect at 50 μM
Description: as §1

PI3Kα = PI3Kα (Homo sapiens, UniProt P42336); assay: PI3Kα Kinase-Glo Luminescent Kinase Assay; format: biochemical; conditions: 1 µM ATP, 60 min
Chain of PI3Kα (P42336 whole entry): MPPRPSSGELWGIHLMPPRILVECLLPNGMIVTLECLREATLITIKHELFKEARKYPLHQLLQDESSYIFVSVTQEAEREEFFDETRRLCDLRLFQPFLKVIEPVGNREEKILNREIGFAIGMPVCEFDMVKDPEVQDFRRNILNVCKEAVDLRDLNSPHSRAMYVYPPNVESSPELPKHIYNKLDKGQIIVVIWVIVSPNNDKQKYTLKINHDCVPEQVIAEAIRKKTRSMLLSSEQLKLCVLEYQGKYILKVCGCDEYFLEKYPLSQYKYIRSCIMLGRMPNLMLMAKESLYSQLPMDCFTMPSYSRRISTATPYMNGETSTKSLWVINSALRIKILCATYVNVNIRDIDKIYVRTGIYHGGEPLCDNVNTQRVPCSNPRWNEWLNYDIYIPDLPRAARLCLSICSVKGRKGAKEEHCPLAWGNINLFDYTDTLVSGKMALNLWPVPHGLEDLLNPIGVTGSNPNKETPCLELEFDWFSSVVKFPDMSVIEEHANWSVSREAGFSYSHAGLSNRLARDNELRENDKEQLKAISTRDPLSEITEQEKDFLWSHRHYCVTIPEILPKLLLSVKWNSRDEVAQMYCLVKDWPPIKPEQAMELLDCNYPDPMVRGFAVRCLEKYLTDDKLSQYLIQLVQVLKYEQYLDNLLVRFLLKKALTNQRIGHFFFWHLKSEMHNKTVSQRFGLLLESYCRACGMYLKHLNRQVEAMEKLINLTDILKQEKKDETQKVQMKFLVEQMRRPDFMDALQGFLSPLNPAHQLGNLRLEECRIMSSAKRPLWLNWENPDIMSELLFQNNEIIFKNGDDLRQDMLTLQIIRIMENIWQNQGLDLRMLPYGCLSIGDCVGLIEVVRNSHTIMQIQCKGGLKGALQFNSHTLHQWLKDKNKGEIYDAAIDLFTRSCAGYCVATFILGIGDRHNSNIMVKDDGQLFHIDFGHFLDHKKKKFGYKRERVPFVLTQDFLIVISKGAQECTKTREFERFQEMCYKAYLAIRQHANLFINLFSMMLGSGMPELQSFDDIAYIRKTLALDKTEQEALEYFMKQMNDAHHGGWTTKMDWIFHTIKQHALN
Chain of PI3Kα (P27986 whole entry partner): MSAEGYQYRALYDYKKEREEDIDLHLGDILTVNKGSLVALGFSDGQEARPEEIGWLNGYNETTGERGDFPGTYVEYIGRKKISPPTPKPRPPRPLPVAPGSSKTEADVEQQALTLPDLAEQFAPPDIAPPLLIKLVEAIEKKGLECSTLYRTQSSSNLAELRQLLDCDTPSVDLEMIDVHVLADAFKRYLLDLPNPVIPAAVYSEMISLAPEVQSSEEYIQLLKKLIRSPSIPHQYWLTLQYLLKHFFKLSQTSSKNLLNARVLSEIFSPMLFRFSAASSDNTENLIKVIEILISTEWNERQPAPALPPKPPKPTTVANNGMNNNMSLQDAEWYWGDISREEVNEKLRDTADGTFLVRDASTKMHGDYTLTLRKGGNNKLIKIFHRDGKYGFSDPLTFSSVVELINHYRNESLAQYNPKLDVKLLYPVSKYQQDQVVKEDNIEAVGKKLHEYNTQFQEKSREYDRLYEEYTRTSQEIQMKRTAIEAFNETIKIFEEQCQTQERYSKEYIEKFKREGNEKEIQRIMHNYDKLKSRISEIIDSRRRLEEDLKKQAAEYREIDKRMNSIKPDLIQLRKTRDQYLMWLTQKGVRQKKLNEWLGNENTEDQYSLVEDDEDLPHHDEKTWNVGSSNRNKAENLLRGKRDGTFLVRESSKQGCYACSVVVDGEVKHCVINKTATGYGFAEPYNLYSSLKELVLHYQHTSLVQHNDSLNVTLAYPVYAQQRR

mTOR = mTOR (Homo sapiens, UniProt P42345); assay: mTOR Kinase-Glo Luminescent Kinase Assay; format: biochemical; conditions: 10 µM ATP, 60 min

melting point	IC50 (PI3Kα)	IC50 (mTOR)	Compound	IC50 ([1]; Homo sapiens, PC-3, 72 h)	IC50 (A549 (human lung cancer))	IC50 ([2]; Homo sapiens, MCF7, 72 h)	IC50 (HepG2 (human hepatoma); Homo sapiens, HepG2, 72 h)	IC50 ([1]; 72 h)	IC50 ([2]; 72 h)	IC50 (HepG2 (human hepatoma); 72 h)
189 to 193 °C	–	–	COc1ccc(C2CC(c3ccc(F)cc3)=NN2c2nc(N3CCOCC3)c3c4c(sc3n2)CCCC4)cc1 (stereo not shown) [Compound 21d, 4-(2-(3-(4-fluorophenyl)-5-(4-methoxyphenyl)-4,5-dihydro-1H-pyrazol-1-yl)-5,6,7,8-tetrahydrobenzo[4,5]thieno[2,3-d]pyrimidin-4-yl)morpholine]	25.3 ± 0.75 µM	17.8 ± 1.1 µM	29.5 ± 1.87 µM	23.7 ± 0.11 µM	–	–	–
293 to 294 °C	–	–	Clc1ccc(C2=NN(c3nc(N4CCOCC4)c4c5c(sc4n3)CCCC5)C(c3ccccc3)C2)cc1Cl (stereo not shown) [Compound 21h, 4-(2-(3-(3,4-dichlorophenyl)-5-phenyl-4,5-dihydro-1H-pyrazol-1-yl)-5,6,7,8-tetrahydrobenzo[4,5]thieno[2,3-d]pyrimidin-4-yl)morpholine]	> 50 µM	23.5 ± 0.82 µM	> 50 µM	> 50 µM	–	–	–
231 to 234 °C	–	–	Clc1ccc(C2=NN(c3nc(N4CCOCC4)c4c5c(sc4n3)CCCC5)C(c3ccc(Br)cc3)C2)cc1Cl (stereo not shown) [Compound 21g, 4-(2-(5-(4-bromophenyl)-3-(3,4-dichlorophenyl)-4,5-dihydro-1H-pyrazol-1-yl)-5,6,7,8-tetrahydrobenzo[4,5]thieno[2,3-d]pyrimidin-4-yl)morpholine]	> 50 µM	> 50 µM	> 50 µM	> 50 µM	–	–	–
257 to 259 °C	–	–	Brc1ccc(C2=NN(c3nc(N4CCOCC4)c4c5c(sc4n3)CCCC5)C(c3ccccc3)C2)cc1 (stereo not shown) [Compound 21f, 4-(2-(3-(4-bromophenyl)-5-phenyl-4,5-dihydro-1H-pyrazol-1-yl)-5,6,7,8-tetrahydrobenzo[4,5]thieno[2,3-d]pyrimidin-4-yl)morpholine]	> 50 µM	> 50 µM	> 50 µM	> 50 µM	–	–	–
272 to 273 °C	–	–	Fc1ccc(C2CC(c3ccc(Br)cc3)=NN2c2nc(N3CCOCC3)c3c4c(sc3n2)CCCC4)cc1 (stereo not shown) [Compound 21e, 4-(2-(3-(4-bromophenyl)-5-(4-fluorophenyl)-4,5-dihydro-1H-pyrazol-1-yl)-5,6,7,8-tetrahydrobenzo[4,5]thieno[2,3-d]pyrimidin-4-yl)morpholine]	> 50 µM	> 50 µM	> 50 µM	38.7 ± 1.72 µM	–	–	–
243 to 244 °C	–	–	Cc1ccc(C2CC(c3ccc(Br)cc3)=NN2c2nc(N3CCOCC3)c3c4c(sc3n2)CCCC4)cc1 (stereo not shown) [Compound 21b, 4-(2-(3-(4-bromophenyl)-5-(p-tolyl)-4,5-dihydro-1H-pyrazol-1-yl)-5,6,7,8-tetrahdrobenzo[4,5]thieno[2,3-d]pyrimidin-4-yl)morpholine]	20.6 ± 0.63 µM	11.59 ± 0.11 µM	15.3 ± 0.83 µM	12.4 ± 0.96 µM	–	–	–
252 to 253 °C	–	–	COc1ccc(C2CC(c3ccc(Cl)c(Cl)c3)=NN2c2nc(N3CCOCC3)c3c4c(sc3n2)CCCC4)cc1 (stereo not shown) [Compound 21a, 4-(2-(3-(3,4-dichlorophenyl)-5-(4-methoxyphenyl)-4,5-dihydro-1H-pyrazol-1-yl)-5,6,7,8-tetrahydrobenzo[4,5]thieno[2,3-d]pyrimidin-4-yl)morpholine]	31.8 ± 0.95 µM	27.68 ± 0.1 µM	–	32.4 ± 1.84 µM	–	–	–
212 to 213 °C	–	–	c1ccc(C2=NN(c3nc(N4CCOCC4)c4c5c(sc4n3)CCCC5)C(c3ccccc3)C2)cc1 (stereo not shown) [Compound 21c, 4-(2-(3,5-diphenyl-4,5-dihydro-1H-pyrazol-1-yl)-5,6,7,8-tetrahydrobenzo[4,5]thiophene[2,3-d]pyramidin-4-yl)morpholine]	> 50 µM	42 ± 1.49 µM	> 50 µM	> 50 µM	–	–	–

The next lines start with the compound.

Compound	melting point	IC50 (PI3Kα)	IC50 (mTOR)	IC50 ([1]; Homo sapiens, PC-3, 72 h)	IC50 (A549 (human lung cancer))	IC50 ([2]; Homo sapiens, MCF7, 72 h)	IC50 (HepG2 (human hepatoma); Homo sapiens, HepG2, 72 h)	IC50 ([1]; 72 h)	IC50 ([2]; 72 h)	IC50 (HepG2 (human hepatoma); 72 h)
CS(=O)(=O)N1CCN(Cc2cc3nc(-c4cccc5[nH]ncc45)nc(N4CCOCC4)c3s2)CC1 [GDC-0941, reference compound]	–	–	–	4.35 ± 0.33 µM	6.99 ± 0.21 µM	0.2 ± 0.08 µM	0.07 ± 0.03 µM	–	–	–
Fc1ccc(C2=NN(c3nc(N4CCOCC4)c4ccsc4n3)C(c3ccc(F)cc3)C2)cc1 (stereo not shown) [Compound 9c, 4-(2-(3,5-bis(4-fluorophenyl)-4,5-dihydro-1H-pyrazol-1-yl)thieno[2,3-d]pyrimidin-4-yl)Morpholine]	225 to 227 °C	–	–	18.2 ± 1.55 µM	24.23 ± 0.15 µM	22.37 ± 0.17 µM	17.4 ± 0.98 µM	–	–	–
Fc1ccc(C2=NN(c3nc(N4CCOCC4)c4sccc4n3)C(c3ccc(F)cc3)C2)cc1 (stereo not shown) [Compound 15c, 4-(2-(3,5-bis(4-fluorophenyl)-4,5-dihydro-1H-pyrazol-1-yl)thieno[3,2-d]pyrimidin-4-yl)Morpholine]	254.7 to 255.4 °C	–	–	25.3 ± 2.39 µM	39 ± 3.32 µM	37.1 ± 2.99 µM	18.9 ± 1.86 µM	–	–	–
c1ccc(C2=NN(c3nc(N4CCOCC4)c4sccc4n3)[C@@H](c3ccccc3)C2)cc1 (stereo in doubt) [Compound 15a]	131.2 to 132.5 °C	25.7 ± 2.33 µM	> 50 µM	15.5 ± 1.21 µM	16.9 ± 1.61 µM	17 ± 1.68 µM	13.1 ± 1.48 µM	–	–	–
c1ccc(C2=NN(c3nc(N4CCOCC4)c4ccsc4n3)[C@@H](c3ccccc3)C2)cc1 (stereo in doubt) [Compound 9a]	202 to 205 °C	9.47 ± 0.63 µM	39.9 ± 7.6 µM	14.7 ± 1.32 µM	11.3 ± 1.19 µM	9.8 ± 0.93 µM	12.3 ± 0.96 µM	12.3 ± 0.96 µM	14.7 ± 1.32 µM	9.8 ± 0.93 µM
